PubChem BioAssay (NCI)
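Briefly, cells in 96-well plates were exposed to five compound concentrations for 48 h, and endpoints were estimated by linear interpolation. At the TGI there is no net growth.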 Where a SMILES comes first, the peptide text is derived from it. The star is where a group is joined. Boc = CC(C)(C)OC(=O)*

Columns and labels:
Assay in all cases: NCI anticancer screen, dose series, 48 h
[1] = test system: 786-0 renal
[2] = test system: SK-MEL-2 melanoma
[3] = test system: HL-60(TB) leukemia
[4] = test system: CAKI-1 renal
[5] = test system: ACHN renal
[6] = test system: A498 renal
[7] = test system: EKVX NSCLC
[8] = test system: HCC-2998 colon
[9] = test system: UACC-257 melanoma
[10] = test system: TK-10 renal
[11] = test system: M14 melanoma
[12] = test system: IGROV1 ovarian
[13] = test system: OVCAR-4 ovarian
[14] = test system: U251 CNS
[15] = test system: KM12 colon
[16] = test system: RXF 393 renal

Structure (SMILES)	TGI [1] [µM]	TGI [2] [µM]	TGI [3] [µM]	TGI [4] [µM]	TGI [5] [µM]	TGI [6] [µM]	TGI [7] [µM]	TGI [8] [µM]	TGI [9] [µM]	TGI [10] [µM]	TGI [11] [µM]	TGI [12] [µM]	TGI [13] [µM]	TGI [14] [µM]	TGI [15] [µM]	TGI [16] [µM]
CNC(=O)CNC(=O)C(NC(=O)CNC(=O)C1CCCN1C(=O)C(C)NC(=O)C(NC(=O)OC(C)(C)C)C(C)C)C(C)C (stereo not given) (Boc-VAPGVG-NHMe; configuration not given here)	> 100	> 100	> 100	> 100	> 100	> 100	> 100	> 100	> 100	> 100	> 100	> 100	> 100	> 100		
CCCc1c(O)c2ccccc2[nH]c1=O	> 100		> 100	> 100	> 100	> 100	> 100	> 100	> 100	> 100		> 100	> 100	> 100	> 100	
Cc1ccc(NC(=O)C23CC4CC(CC(C4)C2)C3)c(C(=O)NNC(=O)c2ccc(Cl)cc2)c1	59		55.5	73.8	37.8		68	30.2	9.53	41.5	> 100	18.2	65.8	37.1	90.9	39.8
O=C(c1ccccc1)c1ccc(N2C(=O)/C(=C/c3cccc([N+](=O)[O-])c3)N=C2c2ccccc2)c(N2C(=O)/C(=C/c3cccc([N+](=O)[O-])c3)N=C2c2ccccc2)c1	> 100	> 100	15.8	> 100	> 100	> 100	> 100	60.1	> 100	> 100	> 100	> 100	> 100	> 100	> 100	
NC(=S)Nc1c(S(N)(=O)=O)cc(S(N)(=O)=O)c(Cl)c1Cl	> 100	> 100	> 100	> 100			> 100		> 100	> 100	> 100	> 100	> 100	> 100	> 100	> 100
Cc1ccc(S(=O)(=O)NN=C2C(C)CC(C(C)(C)C)CC2C)cc1 (stereo not given)	32.9	32.9	52.7	31.6		31.4		32.1	36.6	65	26.9	> 100	29.1	31.5	31.4	
CCOC(=O)C(=NN(C)c1ncccc1N)C(=O)OCC	87.2	> 100	84.2	> 100		> 100			58.7	> 100	> 100	> 100	> 100	> 100	> 100	> 100
Cn1c(=O)oc2cc(C(=O)CN3CCN(Cc4ccc5c(c4)OCO5)CC3)c(Cl)cc21	> 100	> 100	> 100	> 100	> 100			> 100				> 100		> 100		> 100
COc1cc(Br)cc2c1O[C@H]1C(=O)CC3CC21CCN3C (stereo not given in full)	> 100	> 100	42.7	> 100	> 100	> 100	> 100	> 100	> 100		> 100	> 100			> 100	
Cc1nn(C(=O)c2ccc(Cl)cc2)c2c1C(c1ccccc1)SC(N)=N2 (stereo not given)	> 10	> 10	> 10	> 10	> 10		> 10	> 10	> 10	> 10	> 10	> 10	> 10	> 10	> 10	> 10
CCc1nc2c(n1CC)C(=O)c1ccccc1C2=O	> 100		> 100		> 100		> 100	> 100	51.4	93.1	54.9	> 100	> 100	> 100	> 100	51
O=C1CCN(CCC(F)(F)C(F)(F)C(F)(F)C(F)(F)F)C(=S)N1	> 100	> 100	> 100		> 100		> 100			> 100	> 100	> 100	> 100	> 100	> 100	> 100
N#Cc1nc(/C=C/c2cccs2)oc1N	> 100	> 100	> 100	> 100	> 100	> 100	> 100		> 100	> 100	> 100	> 100		> 100	> 100	> 100
Cc1cc(N(C)C)ccc1N=Nc1ccc2ncccc2c1	> 100	> 100	> 100	> 100	> 100		> 100		> 100	76.2	> 100	> 100		> 100	> 100	> 100
Cc1cc2c(=O)c3ccc(Cl)cc3[nH]c2c(C(=O)O)c1C	> 100	> 100		> 100	> 100		> 100	> 100	> 100	> 100	> 100	> 100	> 100	> 100	> 100	> 100
CC(=O)OCC(OC(C)=O)C(OC(C)=O)C(/C=N\Nc1nc2ccccc2c(=O)[nH]1)OC(C)=O (stereo not given)	> 100	> 100	> 100	> 100	> 100	> 100	> 100		> 100	> 100	> 100	> 100		> 100	> 100	
COc1ccc2cc(NC(=O)Nn3cnnc3)ccc2c1	> 100	> 100	> 100	> 100	> 100	> 100	> 100	> 100	> 100	> 100	> 100	> 100	> 100	> 100	> 100	
